“Also recorded” adds a separate entry of the source.
Assays:
[1] = Formalin-evoked nocifensive (rubbing) behavior, whisker-pad injection, in vivo pain model in mice; set-up: species or system mouse; settings: for formalin-induced nocifensive behavior, time course: FIG. 21D; for formalin-induced nocifensive behavior, quantitation, in particular second phase: compounds pre-injected at 0.5 mM/10 μL into whiskerpad 15 min before 4% formalin
Protocol: Compounds were tested for their effect in reducing pain using an in vivo pain model in mice. For mouse formalin-evoked irritant behavior measurements, mice were well-fed, well-rested, and tested at the same time of day, at the same time-point of their circadian rhythm. They were allowed to acclimate to a plexiglas chamber for at least 30 min before testing, and received 10 μL subcutaneous injection of 4% of formalin (diluted from an aqueous solution of commercial 37% formaldehyde with normal saline (NS)) through a 30-gauge needle into the right whiskerpad, as further detailed in Luccarini et al. (J. Pain, 2006, 7, 908-914). Normal saline was used as control injection. After injection, mice were immediately placed back into the chamber and the rubbing behavior was recorded by a private consumer-type video-camera for a 45 min observation period. The recording time was divided into 9 blocks of 5 min, and a nociceptive score was determined per block by measuring the time that the animals spent rubbing the injected area predominantly with the ipsilateral fore-paw and rarely with hind-paw. This rubbing behavior with fore-paw is evoked by pain, which is distinct from itch behavior. Behavioral analysis was conducted by observers blinded to treatment.
To investigate the effects of the specific compounds GSK205, 16-8, and 16-8/18hy on formalin-induced nociceptive behavior, mice received a single subcutaneous injection of the compounds into the whiskerpad (10 μL, dissolved in 4% DMSO) 15 min before formalin injection. Control animals received the same volume of NS, 4% DMSO.

[2] = UVB-overexposure evoked nocifensive behavior (mouse model for sunburn), topical treatment; assay type: in vivo; settings: 0.5 mM in 40 μL, n=4/group
Protocol: Compounds were tested for their effect on nocifensive behavior (response to pain) following UVB overexposure. Behavioral tests were performed to evaluate the decrease in withdrawal thresholds in response to mechanical von Frey hair or thermal stimuli applied to hind paws. The Von-Frey apparatus (Ugo Basile) applied a mechanical stimulus with a flexible steel wire from underneath the hind paw. The force leading to withdrawal was determined. For the thermal stimuli test, paws were stimulated with heat from underneath applied by an infrared beam (Hargreave's test apparatus; Ugo Basile), and withdrawal latencies were recorded. The withdrawal thresholds were ascertained before and after UV exposure. Mice were exposed to UVB 3-5 days after the last application of tam/oil, using a Bio-Rad Gel Doc 2000 UV transilluminator (302 nm) for 5 min with an exposure of 600 mJ/cm^2. This represents 5-10 times the minimal erythema-inducing dose, in keeping with the rationale of inducing sunburn and studying sunburn-evoked pain.

human TRPA1 = molecular target: T1, human TRPA1 (Homo sapiens, UniProt O75762); assay: Ca2+ transient in N2a cells transfected with human TRPA1; assay type: cell-based
T1 construct: expressed in transfected cells; host or cells: N2a cells, pcDNA3.1 plasmid, co-transfected with an eGFP plasmid
Protocol: Compounds were tested for their effect on TRPA1. N2a permanent cells were transfected with human TRPA1 cDNA, using a pcDNA3.1 expression plasmid. They were co-transfected with eGFP-expressing plasmid, or, for control, with eGFP plasmid only.

TRPV4 = TRPV4 (Homo sapiens, UniProt Q9HBA0); assay: TRPV4-mediated calcium influx in N2a cells with targeted expression of human TRPV4; assay type: cell-based; set-up: expressed in transfected cells; host or cells: N2a cells; settings: 2.5 μM inhibitor, pre-incubation 10 min; TRPV4 activated with 10 nM GSK101
Protocol: Compounds (GSK205, 16-12, 16-13, 16-14, 16-18, 16-8, and 16-8/18hy) were tested for their effect on TRPV4-mediated calcium influx in N2a cultured cells with targeted expression of human TRPV4. Ca2+ imaging was performed according to Li et al. (Environ. Health Perspect. 2011, 119, 784-93) and Moore et al. (Proc. Natl. Acad. Sci. U.S.A. 2013, 110, E3225-E3234). Briefly, Ca2+ imaging of primary mouse epidermal keratinocytes (1° MK) in response to chemical activation of TRPV4 was conducted after loading with 2 μM fura2-AM, following a ratiometric Ca2+-imaging protocol with 340/380 nm blue light for dual excitation. Ratios of emissions were acquired at 0.5 Hz. ΔR/R0 was determined as the fraction of the increase of a given ratio over baseline ratio, divided by baseline ratio. For stimulation of cells with UVB, where fura-2 was not suitable because of the proximity of stimulation with 340/380 nm vs. 295 nm, 2 μM fluo4-AM was used instead. Ca2+ imaging was carried out at 488 nm excitation, acquisition of emissions at 0.5 Hz, expressed as ΔF/F0. TRPV4 was activated with 10 nM GSK101, a specific activator, which had no effect on RFP-transfected cells. Each of the […] compounds were added to a concentration of 2.5 μM, and its effect was observed.

ET1/Edn1 = assay: Edn1 mRNA (qPCR) in UVB-exposed paw-pad epidermis after topical treatment; assay type: in vivo, mouse; settings: 5 mM GSK205 topical; 2 hour and 24 hour time-points
Protocol: GSK205 topical treatment: A viscous solution of 68% EtOH/5% glycerol plus 1 mM or 5 mM GSK205 (none for control) was applied to hindpaws by rubbing in 20 μL, applied at time-points 1 hour and again 10 min before UV exposure.

T1 sequence (O75762 whole entry): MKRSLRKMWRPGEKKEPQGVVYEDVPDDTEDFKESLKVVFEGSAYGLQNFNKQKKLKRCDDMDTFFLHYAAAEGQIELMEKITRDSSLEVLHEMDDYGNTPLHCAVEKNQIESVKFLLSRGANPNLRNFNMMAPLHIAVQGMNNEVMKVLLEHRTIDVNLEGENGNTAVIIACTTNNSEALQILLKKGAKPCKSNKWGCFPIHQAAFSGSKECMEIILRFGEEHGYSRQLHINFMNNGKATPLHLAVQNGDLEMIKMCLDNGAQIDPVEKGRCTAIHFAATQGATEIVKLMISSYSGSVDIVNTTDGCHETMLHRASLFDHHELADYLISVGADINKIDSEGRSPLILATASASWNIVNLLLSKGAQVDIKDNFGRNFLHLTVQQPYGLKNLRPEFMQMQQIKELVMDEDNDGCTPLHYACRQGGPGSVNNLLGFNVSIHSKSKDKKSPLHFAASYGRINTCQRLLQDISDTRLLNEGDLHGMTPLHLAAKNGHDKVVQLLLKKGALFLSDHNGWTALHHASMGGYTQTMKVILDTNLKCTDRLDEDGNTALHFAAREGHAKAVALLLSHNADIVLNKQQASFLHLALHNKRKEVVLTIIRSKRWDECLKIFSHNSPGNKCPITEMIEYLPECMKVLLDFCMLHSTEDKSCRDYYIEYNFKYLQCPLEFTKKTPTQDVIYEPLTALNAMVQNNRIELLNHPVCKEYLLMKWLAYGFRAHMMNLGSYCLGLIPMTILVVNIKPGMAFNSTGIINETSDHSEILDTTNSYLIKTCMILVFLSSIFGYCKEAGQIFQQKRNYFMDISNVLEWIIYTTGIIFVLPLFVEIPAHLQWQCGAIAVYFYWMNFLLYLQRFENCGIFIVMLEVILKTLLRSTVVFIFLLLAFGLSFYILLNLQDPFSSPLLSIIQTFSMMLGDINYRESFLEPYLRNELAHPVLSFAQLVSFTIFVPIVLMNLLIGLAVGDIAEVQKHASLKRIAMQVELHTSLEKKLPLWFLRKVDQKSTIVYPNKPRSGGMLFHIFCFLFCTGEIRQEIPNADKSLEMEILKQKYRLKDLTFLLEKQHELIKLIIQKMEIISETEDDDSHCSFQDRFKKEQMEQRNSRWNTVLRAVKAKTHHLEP
TRPV4, sequence (Q9HBA0 whole entry): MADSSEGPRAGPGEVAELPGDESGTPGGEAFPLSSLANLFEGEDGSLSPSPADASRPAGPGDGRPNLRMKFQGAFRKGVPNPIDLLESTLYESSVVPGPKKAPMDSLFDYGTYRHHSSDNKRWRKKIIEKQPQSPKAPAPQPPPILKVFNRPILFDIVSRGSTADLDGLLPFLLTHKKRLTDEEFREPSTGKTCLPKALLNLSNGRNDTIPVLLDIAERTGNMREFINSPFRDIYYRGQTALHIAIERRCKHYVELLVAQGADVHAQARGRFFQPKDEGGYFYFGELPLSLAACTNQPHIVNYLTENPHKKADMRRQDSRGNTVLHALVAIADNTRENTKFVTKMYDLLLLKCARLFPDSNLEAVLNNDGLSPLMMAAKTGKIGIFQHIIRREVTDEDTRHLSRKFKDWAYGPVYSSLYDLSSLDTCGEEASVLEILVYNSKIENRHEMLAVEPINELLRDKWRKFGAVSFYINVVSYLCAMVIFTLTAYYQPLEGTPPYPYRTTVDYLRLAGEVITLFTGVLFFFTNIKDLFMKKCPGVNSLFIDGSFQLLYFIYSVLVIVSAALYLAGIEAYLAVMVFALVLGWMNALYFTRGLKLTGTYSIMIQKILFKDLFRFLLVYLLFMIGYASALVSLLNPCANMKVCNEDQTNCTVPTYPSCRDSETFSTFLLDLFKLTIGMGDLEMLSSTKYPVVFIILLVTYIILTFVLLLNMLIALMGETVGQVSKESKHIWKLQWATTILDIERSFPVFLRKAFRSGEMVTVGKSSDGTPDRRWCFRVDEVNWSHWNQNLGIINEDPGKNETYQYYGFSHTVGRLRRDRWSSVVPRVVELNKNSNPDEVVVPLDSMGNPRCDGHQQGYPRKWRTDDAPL

SMILES | formalin-induced nocifensive behavior at the 45-min time-point ([1]; 0.5 mM/10 μL, 45-min time-point) | formalin-induced nocifensive behavior, time course ([1]; 0.5 mM/10 μL) | formalin-induced nocifensive behavior, quantitation, in particular second phase [1] | UVB-overexposure evoked nocifensive behavior (response to pain) [2] | inhibitory activity against human TRPA1 (human TRPA1; 5 μM compound) | inhibition of TRPV4-mediated calcium influx (peak calcium concentration in the cells) (TRPV4) | inhibition of TRPA1 activity (human TRPA1; doses below or equaling 25 μM) | Edn1 mRNA expression after UVB (ET1/Edn1)
CN(CCc1ccc(Nc2nc(-c3ccccc3)cs2)cc1)Cc1ccccc1 [Compound 16-8] | reduction to control levels | significantly attenuated nocifensive behavior | significant attenuation of nocifensive behavior | especially effective in reducing the response to pain | inhibitory activity | most potent | – | –
CN(CCc1ccc(Nc2nc(-c3cccnc3)cs2)cc1)Cc1ccccc1 [GSK205] | – | not different from control | lack of effect | as effective as vehicle | – | very low potency | did not inhibit TRPA1 activity | unchanged; also recorded: complete lack of this regulation

Reference: patent US11014896B2, “TRPA1 and TRPV4 inhibitors and methods of using the same for organ-specific inflammation and itch” (Duke University, priority 2014, dated 2021)
